Measured values reported in patent publication US20180049965A1, “ORAL CARE METHODS AND COMPOSITIONS UTILIZING CHITOSAN-DERIVATIVE COMPOUNDS” (Synedgen Inc., priority 2009, published 2018).

Tests used:
[1] = test system: Streptococcus mutans ATCC 35668 biofilms; experiment: Immediate dispersal of stationary S. mutans biofilms, crystal violet, 1 minute treatment; format: cell-based; conditions: 1.2% chlorhexidine, room temperature
Experimental: FIG. 11 depicts the immediate dispersal of Streptococcus mutans ATCC 35668 2-day old stationary biofilms treated with 100 μg/mL chitosan-arginine (43 kDa, 25% functionalized, 88% DDA, 2.28 PDI), water, or 1.2% Chlorhexidine. The biofilms were rinsed, stained with crystal violet and treated for 1 minute and rinsed.
The S. mutans biofilms were grown in 12-well untreated tissue culture plates containing BHI media supplemented with 1% sucrose for approximately 3 days. The biofilms were rinsed with water three times and stained with crystal violet for 2 minutes then rinsed three times (FIG. 11, ‘Before’). Water, 100 μg/ml chitosan-arginine or 1.2% chlorhexidine were used to treat each biofilm for 1 minute at room temperature (FIG. 11, ‘During’).

[2] = test system: Streptococcus mutans (ATCC 35668); experiment: Synergy of chitosan-arginine with chlorhexidine, remaining CFU after 1 hour; format: cell-based
Experimental: Solutions of both agents were prepared at 4× their intended final concentration. Two concentrations for each agent are used for each assay and the drugs were combined in 4 ways: […] Controls of each drug alone as well as positive (S. mutans only) and negative (media only) controls were prepared. […] After incubation, the plates were centrifuged for 10 minutes at 4000 RPM on a microtiter plate rotor, before being resuspended, sonicated, diluted and plated on BHI for remaining CPU.

SMILES: [H]/N=C(\N/C(=N/[H])NCCCCCCNC(=N)NC(=N)Nc1ccc(Cl)cc1)Nc1ccc(Cl)cc1 [Chlorhexidine]
- biofilm after 1 minute treatment and rinsing [1]: removed from the surface
- Log CFU reduction beyond most active agent ([2]; Chlorhexidine 0.00625% alone (C/A 0 μg/ml)): 1.9 Log CFU
- Log CFU reduction beyond most active agent ([2]; Chlorhexidine 0.0125% alone (C/A 0 μg/ml)): 1.8 Log CFU
